Measurements taken from patent publication US11268958B2, “Bacteria-specific labeled substrtates as imaging biomarkers to diagnose, locate, and monitor infections” (THE JOHNS HOPKINS UNIVERSITY, priority 2012, dated 2022).
Read-outs that look alike come from different tables or passages of the source.

Key:
J774 macrophages = test: Tracer uptake in host cells (J774 macrophages); type: cell-based; conditions: for accumulation in eukaryotic cell line: J774 macrophage (data not shown)
Staphylococcus aureus = test: Intracellular tracer uptake assay in S. aureus cultures; type: cell-based; conditions: for intracellular uptake / probe incorporated by bacteria (percent of total radioactivity): S. aureus; for probe incorporated by bacteria (percent of total radioactivity): gram positive control, 120 minutes
[1] = tested on: Human Brain Microvascular Endothelial Cells (HBMEC); conditions: 2 h
Mycobacterium smegmatis = test: Intracellular tracer uptake assay in M. smegmatis cultures; conditions: 2 hours of incubation
Description: (§3) In vitro uptake assays: Freeze dried reference strains of various bacterial species were purchased from American Type Culture Collection (Manassas, Va.) and grown to mid-log phase (OD600 1.0) in Lysogeny Broth (LB) or Middlebrook 7H9 broth supplemented with 10% oleic acid-albumin-dextrose-catalase (Difco, Detroit, Mich.) and 0.05% Tween 80 (Sigma). The number of colony forming units (CFUs) were enumerated by dilution and plating onto solidified media. Tracer uptake assays were performed by incubating bacterial cultures with 7.4 kBq per ml culture of tracer at 37° C. with rapid agitation for 4 hours, with sampling at 0, 30, 120, and 240 minutes. As a control, heat killed (90° C. for 20 minutes) bacteria were similarly incubated with each tracer. Bacteria were pelleted by centrifugation and washed three times with PBS. The activity for each pellet was measured using an automated gamma counter (1282 Compugamma CS Universal gamma counter, LKB Wallac). Background counts were subtracted from sample counts. Six independent replicates were used for each tracer, and for each bacterial strain. Uptake was expressed as the percentage of total tracer added to the culture that resided within the cell pellet.

Escherichia coli = test: Intracellular tracer uptake assay in E. coli cultures; type: cell-based
heat killed bacteria = test: Tracer uptake in heat killed bacteria (negative control); type: cell-based
Text: Background counts were subtracted from sample counts.
(§1) [^18F]FDS uptake and imaging. […] Tissues were collected for direct gamma counting.

E. coli = conditions: for right thigh vs. left thigh uptake ratio (gamma counts of resected tissues) / PET signal intensity, infected right thigh versus control left thigh (ROIs): live E. coli right thigh, heat killed E. coli left thigh; for PET signal intensity, infected right thigh versus control left thigh (ROIs): 8 hours incubation
WEHI 164 fibroblasts = test: Tracer uptake in WEHI 164 fibroblasts; type: cell-based; conditions: WEHI 164 fibroblast (data not shown)
[2] = tested on: Staphylococcus aureus, Escherichia coli, Mycobacterium smegmatis; test: Differential intracellular accumulation in three model bacteria; conditions: S. aureus, E. coli, M. smegmatis
Description: as §3

[3] = tested on: Mycobacterium tuberculosis
Description: as §3

S. aureus = test: Scintillation counting of resected tissues in S. aureus thigh infection vs LPS; type: in vivo, CBA/J mice; conditions: live S. aureus right thigh, 50 μg LPS left thigh, IV
Description: We next investigated whether [^3H]-2-F-PABA was capable of detecting infection with S. aureus in vivo. […] [^3H]-2-F-PABA was injected IV using a tail vein catheter. Mice were sacrificed following injection, tissues were then resected and radiotracer uptake measured by scintillation counting.

[4] = tested on: Enterococcus, Staphylococcus and Streptococcus species; test: [18F]FDS uptake in representative organisms: gram positive organisms; type: cell-based
Description: as §1
(§2) To further assess the specificity of uptake, E. coli cultures were co-incubated with [^18F]FDS and increasing concentrations of unlabeled sorbitol (FIG. 6B). […] The presence of a srl gene cassette responsible for sorbitol transport, phosphorylation, and oxidation was noted within the annotated genome of E. coli. To predict the range of organisms capable of [^18F]FDS uptake, and therefore detection by PET, the srlD, the gene encoding E. coli sorbitol-6-phosphate dehydrogenase was used to query the UniProtKB database of genome sequenced bacterial species. Alignment and percentage identity was calculated using ClustalOmega. We then selected representative organisms from this panel to test for [^18F]FDS uptake (FIG. 6C).

K. pneumoniae [5] = test: Intracellular tracer uptake assay in K. pneumoniae cultures; conditions: after 120 minutes
Description: as §3

[6] = tested on: Enterobacteriaceae family; test: [18F]FDS uptake in representative organisms: Enterobacteriaceae; type: cell-based; conditions: members of the Enterobacteriaceae family
Description: as §1, §2

E. coli vs S. aureus = test: PET imaging and gamma counting in mixed infection model (E. coli right thigh, S. aureus left thigh); conditions: 6 hours incubation, imaging
Pseudomonas aeruginosa = test: [18F]FDS uptake in representative organisms: Pseudomonas aeruginosa; type: cell-based; conditions: aerobic gram-negative rod Pseudomonas aeruginosa
Description: as §1, §2

K. pneumoniae [7] = test: PET imaging and gamma counting in K. pneumoniae pulmonary infection model; type: in vivo, CBA/J mice
[8] = M. tb, ^3H labeled tracers, 18 hours of incubation

**Q.** `OC[C@@H](O)[C@@H](O)[C@H](O)[C@H](O)CO` [[^14C] D-mannitol, D-mannitol] was tested. Which uptake (J774 macrophages; 2 h) did it give?
**A.** < 5%

**Q.** And the intracellular uptake (Staphylococcus aureus; 30 minutes, 5 mM glucose)?
**A.** 33%

**Q.** What about the intracellular uptake (Staphylococcus aureus; 30 minutes, 10 mM glucose) of the same compound?
**A.** 30%

**Q.** What about the intracellular uptake (Staphylococcus aureus; 30 minutes, without any glucose in the media) of the same compound?
**A.** 53.5%

**Q.** What about the intracellular uptake (Staphylococcus aureus; 2 hours of incubation) of the same compound?
**A.** 66%

**Q.** What about the uptake [1] of the same compound?
**A.** < 5%

**Q.** And the intracellular uptake (Mycobacterium smegmatis)?
**A.** 83%

**Q.** What about the intracellular uptake (Escherichia coli; E. coli, 2 hours of incubation) of the same compound?
**A.** 82%

**Q.** What about the “uptake in heat killed bacteria” value (heat killed bacteria) of the same compound?
**A.** No uptake

**Q.** Which results are given for `OC[C@H]1OC(O)[C@H]([18F])[C@@H](O)[C@@H]1O` (stereo partly shown) [[^18F]FDG, 2-[^18F]-fluorodeoxyglucose, reference compound]?
**A.** accumulation in eukaryotic cell line (J774 macrophages): accumulated; probe incorporated by bacteria (percent of total radioactivity) (Staphylococcus aureus): 50.3%±3.1%; right thigh vs. left thigh uptake ratio (gamma counts of resected tissues) (E. coli): 1.03±0.09; PET signal intensity, infected right thigh versus control left thigh (ROIs) (E. coli): did not produce a significant difference; sites of PET signal concentration (E. coli; mice, CT coregistration): heart and bladder; accumulation in eukaryotic cell line (WEHI 164 fibroblasts): accumulated; uptake in heat killed bacteria (heat killed bacteria): did not incorporate

**Q.** How did the “species that take up the compound (differential uptake)” value [2] turn out when `NC(CCCC(N)C(=O)O)C(=O)O` (stereo not shown) [DAP, 2,6-diaminopimelic acid] was run?
**A.** E. coli and M. smegmatis

**Q.** Which results are given for `Nc1ccc(C(=O)O)cc1` [PABA, p-aminobenzoic acid]?
**A.** accumulation in host-cells (J774 macrophages; J774 macrophages, corresponding time-points (2 and 18 hours)): no significant accumulation; uptake saturability/specificity (Staphylococcus aureus; S. aureus mid log cultures): saturable and specific; accumulation (percent of total radioactivity in bacterial pellet) ([3]; 2 h): 32.9%; accumulation (percent of total radioactivity in bacterial pellet) ([3]; 18 h): 96.3%; intracellular uptake ([3]; 18 h): 58.5%; uptake on addition of excess unlabelled tracer ([3]; M. tuberculosis, excess unlabelled tracer): saturable and specific; uptake saturability/specificity (Escherichia coli; E. coli mid log cultures): saturable and specific; uptake in heat killed bacteria (heat killed bacteria): no uptake

**Q.** `O=C[C@H](O)[C@@H](O)[C@H](O)CO` [XYL, D-xylose] was tested. Which “species that take up the compound (differential uptake)” value [2] did it give?
**A.** E. coli alone

**Q.** Which results are given for `Nc1ccc(C(=O)O)c(F)c1` [2-F-PABA, 2-fluoro-PABA]?
**A.** intracellular uptake [3, 8]: 29.4%; right thigh vs. left thigh uptake ratio (scintillation counting) (S. aureus): 2.62±0.98

**Q.** Which results are given for `OC[C@@H](O)[C@@H](O)[C@H](O)[C@@H]([18F])CO` [[^18F]FDS, 2-[^18F]-fluorodeoxysorbitol]?
**A.** accumulation in eukaryotic cell line (J774 macrophages): not; accumulation of the probe [4]: did not accumulate; probe incorporated by bacteria (percent of total radioactivity) (Staphylococcus aureus): 0.47%±0.09%; probe associated with bacteria (percent of total radioactivity) (K. pneumoniae [5]): 71.1%±8.6%; accumulation of the probe [6]: accumulated; PET signal at E. coli infected thigh versus S. aureus infected thigh (E. coli vs S. aureus): significantly more intensity; accumulation of the probe (Pseudomonas aeruginosa): did not accumulate; right thigh vs. left thigh uptake ratio (gamma counts of resected tissues) (E. coli): 16.37±4.12; PET signal intensity, infected right thigh versus control left thigh (ROIs) (E. coli): 12 fold; route of clearance from circulation (E. coli; mice, over 120 minutes of recording (data not shown)): predominantly by the kidneys; probe associated with bacteria (percent of total radioactivity) (Escherichia coli; E. coli K12, after 120 minutes): 72.2%±9.0%; concentration of unlabeled sorbitol that outcompetes uptake (Escherichia coli; E. coli co-incubated with increasing unlabeled sorbitol): above 40 ug/ml; concentration of unlabeled sorbitol that outcompetes uptake (Escherichia coli; E. coli co-incubated with increasing unlabeled sorbitol (FIG. 6B legend)): above 40 μg/ml; accumulation in eukaryotic cell line (WEHI 164 fibroblasts): not; uptake in heat killed bacteria (heat killed bacteria): did not incorporate; lung vs. blood gamma count ratio (K. pneumoniae [7]): 10.89±4.09; ratio of standardized uptake values, infiltrated vs normal lung tissue ROIs (K. pneumoniae [7]; 18.5 MBq (data not shown)): 5.02±66.33

**Q.** `Nc1ccc(C(=O)O)cc1F` [3-F-PABA, 3-fluoro-PABA] was tested. Which intracellular uptake [3, 8] did it give?
**A.** 11.2%
